Data set [1] deals with HeLa cells transfected with pGR-mCherry and Rab5-GFP or Rab5Q79L-GFP. The data set is described as follows: GR-mCherry translocation in cells expressing Rab5-GFP or Rab5Q79L-GFP. The conditions noted are these: 1 μM, 30 min. Format: cell-based. How it is done: Cotransfected cells expressing Rab-GFP fusions and pGR-mCherry were identified via their characteristic pattern of green and red fluorescence. The translocation ratio was determined using median values of mCherry fluorescence within the nucleus and surrounding region using CellProfiler.
HeLa cells transfected for 24-36 hr with pGR-mCherry and either Rab5-GFP or Rab5Q79L-GFP were plated (10^4/well in […]) the day prior to experiments in 96 well glass bottom plates (Matrical). The cells were washed with HKR buffer and the nuclei labeled using Hoescht as above. […] The cells were incubated for a further 30 min at 37° C. before imaging. Cells that had been cotransfected with EGFP fusions were identified via their characteristic pattern of green and red fluorescence. To evaluate the extent of GR activation, epifluorescence images were obtained as described above, except the fluorescence of pGR-mCherry was also visualized using Zeiss Filter Set #43 (ex BP 545/25 nm, FT 570, em BP 605/70 nm).
(§1) The image analysis algorithm used by CellProfiler is customizable and contained within a ‘Pipeline’ that describes a series of image manipulation and evaluation steps, such as reading the image, adjusting the intensity, and identifying objects. Each step has several options. […] Using the image of Hoescht fluorescence and Otsu's method of automatic thresholding, nuclei were identified and segmented using 3 class thresholding. The middle class was assigned to background. Closely approximated objects were separated using ‘Laplacian of Gaussian’ modeling, and touching nuclei were divided using the ‘shape’ option. Nuclear regions were expanded by 2 μm to generate an enlarged region. The nuclear region was subtracted from enlarged region to generate a ring surrounding the nucleus (surround). The diameter of the surrounding region was chosen to be 2 μm larger than the nucleus, within the range (1-3 μm) used by previously reported high content screens (Ding et al., 1998, J Biol Chem. 273:28897-28905; Peeraniet al., 2007, EMBO J. 26:4744-4755). The ratio of the median intensities of the nuclear and surrounding region of the GFP or mCherry (as appropriate) image were collected for every cell examined. Those cells falling below a threshold of intensity (10% of the maximum intensity of the image) were discarded as ‘untransfected’. Typically, 20-60 transfected cells from 15-30 images were examined for each experimental condition.

In data set [2] the test system is HeLa cells transfected with GR-GFP. Briefly: GR-GFP translocation assay (cytosolic access of Dex-labeled molecules). In kind it is cell-based. The conditions noted are these: for translocation ratio (TR): HeLa cells expressing GR-GFP. The procedure: HeLa cells transfected with pK7-GR-GFP were plated in Matrical plates as described above. To label nuclei, the media was replaced with HKR buffer containing 300 nM Hoescht and the cells incubated for 30 min at 37° C.
Cells were then analyzed as described above.
HeLa cells transfected with pK7-GR-GFP for 24-36 hr were plated (10^4/well in 200 μL) the day prior to experiments in 96 well glass bottom plates (Matrical). The media was replaced with HKR buffer containing 300 nM Hoescht and the cells incubated for 30 min at 37° C. […] The cells were incubated for a further 30 min at 37° C. before epifluorescence imaging using a Zeiss Axiovert 200M microscope fitted with a mRM digital camera, a 63×1.3NA PlanApo objective and an EXFO-Excite illumination source.
Uptake was allowed to proceed for an additional 30 min at 37° C. before analysis by epifluorescence images as described elsewhere herein.
as §1, with “The diameter of the surrounding region was chosen to be 2 μm larger than the nucleus, within the range (1-3 μm) used by previously reported high content screens (Ding et al., 1998, J Biol Chem. 273:28897-28905; Peeraniet al., 2007, EMBO J. 26:4744-4755).” left out

The next data set can be described thus: Figure 15. An excerpt:
Table printed on a drawing sheet, Figure 15
The amino acid sequence of Arg8 is provided in SEQ ID NO:68.
First reader's note: Cytosolic concentration and percent in cytosol are taken as measures of cell permeability or uptake; the supplied text has no description of Figure 15.

For another data set, the target named is cathepsin B (Homo sapiens, UniProt P07858). Briefly: Resistance to acid proteases: cathepsin B. In kind it is in vitro ADME. The settings on record: 50 pmol, 30 min, 37° C., pH 5. The procedure:
50 pmol aPPR, 5.2R, 5.3R, ZF5.3R, TatR (SEQ ID NO:67), or Arg8R (SEQ ID NO:68) were incubated with 5 pg cathepsin B, D, or L for 30 min at 37° C. in 10 μL of 20 mM sodium phosphate buffer (pH 5) containing 150 mM NaCl. At the end of the incubation, the reaction was stopped by adding 40 μL of a solution containing a 84:15:1 ratio of water:EtOH:TFA before analysis by HPLC.

In the next data set the test system is HeLa cells. The data set is described as follows: Colocalization with Alexa-488-transferrin (Tf488), live cell confocal microscopy. The settings on record: 1 μM, 30 min. In kind it is cell-based. The procedure: To examine the colocalization of rhodamine labeled miniature proteins or peptides with Alexa-488-transferrin (Tf488), HeLa cells were plated (200 μl, 10^4 cells/well, 96 well glass bottom plates, Matrical) the day prior to experiments. The media was replaced with 150 μL Hepes-Krebs-Ringer's (HKR) buffer (140 mM NaCl, 2 mM KCl, 1 mM CaCl2, 1 mM MgCl2, 10 mM Hepes pH 7.4) containing 1 μM miniature protein or 25 nM Alexa-488-transferrin (Molecular Probes) and the cells incubated at 37° C. for 30 min. The cells were then rinsed twice with 200 μL, HKR buffer and nuclei were labeled by overlaying 200 μL HKR containing 300 nM Hoechst 33342 (Molecular Probes Cat. # H3570) for 5 minutes. Images of cells were acquired using a PerkinElmer LiveView spinning disk confocal microscope fitted with a 60×1.2 NA objective. Colocalization with Rab-GFP fusions was examined in an analogous way using HeLa cells transfected with the appropriate expression plasmid.
Colocalization between rhodamine and fluorescein labeled miniature proteins and peptides, or between rhodamine labeled miniature proteins and markers of endocytosis was completed using confocal microscopy. Live cell confocal microscopy was conducted using a PerkinElmer LiveView spinning disk confocal microscope fitted with heated microscope enclosure (maintained at 37° C.), a 60×1.2 NA objective, laser illumination, a Nipkow CSU-1× spinning disk, and a Hammamatsu CS9100 EMCCD camera operated using Velocity software. Alexafluor-488-transferrin was detected using a 488 nm laser and a 520 nm long pass filter; tetraethylrhodamine and Alexafluor-546-transferrin were detected using a 546 nm laser line and a 580 nm long pass filter, Hoescht 33342 was detected using a 405 nm laser line and a 450 nm long pass filter. Images were processed for presentation by using the ‘subtract background’ option and linear contrast adjustments in Image J. All adjustments were applied uniformly to the entire image. Colocalization analysis was performed using the JACOP plugin (Bolte and Cordelières, 2006), available on the ImageJ website. The fraction of rhodamine signal overlapping with EGFP signal (R E G) was calculated using Mander's coefficient and automatic thresholding. Pearson's correlation coefficient (R) was also obtained using the JACOP plugin.

The subject of another data set is U2OS(GIGI) cells. The data set is described as follows: GIGI in lysates, stably transfected U2OS(GIGI) cells. In kind it is cell-based. The settings on record: Dex-labeled peptides, 24 h, lysates, read-out: EC50 (eGFP expression, GIGI). An excerpt: RFUs are expressed±standard deviation (Excel). The maximum induction level is defined as RFUmax. Data were processed using Kaleidagraph and GraphPad Prism software. RFU=([I530]/[I580])−([I′530]/[I′580]) (1)
Y=Ymin+(Ymax−Ymin)/(1+10^logEC50-X) (2)

Where no end group is shown, it is not given here. rhodamine = not defined here; Rhod = not defined here

For `C[C@@H]1C[C@H]2[C@@H]3CCC4=CC(=O)C=C[C@]4(C)[C@@]3(F)[C@@H](O)C[C@]2(C)[C@@]1(O)C(=O)CO` [Dex, dexamethasone], the “TR (GR-mCherry), Rab5Q79L-GFP expressing cells” value in data set [1] (Rab5Q79L-GFP) was determined as 2.45±0.21. Besides, the “TR (GR-mCherry), Rab5-GFP expressing cells” value in data set [1] (wild-type Rab5-GFP) is reported as 2.24±0.15. Further, the “reduction of the increase in TR by MβCD” value in data set [2] (5 mM MβCD, 1 μM) came to 53%.
Take WYSCNVCGKAFVLSRHLNRHLRVHRRAT [ZF5.3]: in “Figure 15”, the “% in cytosol” value is reported as 59% and the “[molecule] in cytosol” value was 249 nM.
As to GRKKRRQRRRPPQY [Tat], in “Figure 15”, the “% in cytosol” value turned out to be 0.93% and the “[molecule] in cytosol” value amounted to 4.63 nM.
Consider “K^RhodGPSQPTYPGDDAPVRDLIRFYRDLQRYLRVVTRHRY-NH2 (K(Rhod)GPSQPTYPGDDAPVRDLIRFYRDLQRYLRVVTRHRY-NH2; reading uncertain; also: printed as KRhodGPSQPTYPGDDAPVRDLIRFYRDLQRYLRVVTRHRY-NH2) [5.2R]”, for which, in the data set with cathepsin B, the “degradation by cathepsin B (HPLC)” value is “several additional small peaks”. Further, in the data set on HeLa cells, the “intracellular red fluorescent signal” value is “red fluorescent puncta throughout the cytosol”.
For “K^RhodGPSQPTYPGDDAPVRDLIRFYRDLQRYLNVVTRHRY-NH2 (K(rhodamine)GPSQPTYPGDDAPVRDLIRFYRDLQRYLNVVTRHRY-NH2; reading uncertain; also: printed as K^RhodGPSQPTYPGDDAPVRDLIRFYRDLQRYLNVVTRHRY-NH2) [4.2R]”, in the data set on HeLa cells, the “intracellular red fluorescent signal” value was “red fluorescent puncta throughout the cytosol”.
Regarding “K^RhodGPSQPTYPGDDAPVEDLIRFYRDLRRYLNVVTRHRY-NH2 (K(rhodamine)GPSQPTYPGDDAPVEDLIRFYRDLRRYLNVVTRHRY-NH2; reading uncertain; also: printed as K^RhodGPSQPTYPGDDAPVEDLIRFYRDLRRYLNVVTRHRY-NH2) [4.3R]”, in the data set on HeLa cells, the “intracellular red fluorescent signal” value was “red fluorescent puncta throughout the cytosol”.
For RRRRRRRR [Arg8], in “Figure 15”, the “% in cytosol” value turned out to be 2.8% and the “[molecule] in cytosol” value is listed as 14.0 nM.
The term EC50 denotes the midpoint of the concentration-response curve. As for “K^DexWYSCNVCGKAFVLSAHLNQHLAVHTQAT-NH2 (K(dexamethasone)WYSCNVCGKAFVLSAHLNQHLAVHTQAT-NH2; cysteine pairing not given here) [ZFDex]”, the “translocation ratio (TR)” value in data set [2] (1 μM, 30 min) is 1.4±0.05. In the data set with U2OS(GIGI) cells, the EC50 is 103 nM.
Turning to “K^DexGPSQPTYPGDDAPVEDLIRFYNDLQQYLNVVTRHRY-NH2 (K(dexamethasone)GPSQPTYPGDDAPVEDLIRFYNDLQQYLNVVTRHRY-NH2) [aPPDex]”, in data set [1], the “TR (GR-mCherry), cells expressing Rab5Q79L-GFP or Rab5-GFP” value was 1.25±0.04. For the same compound, the “effect of bafilomycin on TR” value in data set [2] (200 nM bafilomycin pretreatment 1 h, then 1 μM) is given as “did not alter the effect”. The “translocation ratio (TR)” value in data set [2] (1 μM, 30 min) amounted to 1.41±0.09. The “effect of EIPA on TR” value in data set [2] (50 μM EIPA pretreatment 30 min, then 1 μM, 30 min) was “None of the endocytosis inhibitors altered the TR”. Besides, the “effect of dynasore on TR” value in data set [2] (80 μM dynasore pretreatment 30 min, then 1 μM, 30 min) is “None of the endocytosis inhibitors altered the TR”. For the same compound, the “effect of methyl-β-cyclodextrin (MβCD) on TR” value in data set [2] (5 mM MβCD pretreatment 30 min, then 1 μM, 30 min) is reported as “None of the endocytosis inhibitors altered the TR”. Besides, the concentration giving a half-maximal response (EC50) in the data set with U2OS(GIGI) cells came out at 438 nM.

Source of the values: patent US11155580B2, “Modified proteins and methods of use thereof” (YALE UNIVERSITY, priority 2013, dated 2021).
